Legend:
[1] = Half life in rat; format: ADME; conditions: in vivo
[2] = Half life in dog; format: ADME, Canis lupus familiaris; conditions: in vivo
[3] = Inhibition of CGRP (unknown origin); set-up: species or system Homo sapiens
[4] = biological target: Replicase polyprotein 1ab (Severe acute respiratory syndrome coronavirus 2) (UniProt P0DTD1); assay: Binding affinity to SARS-Cov-2 Main protease
[5] = biological target: Replicase polyprotein 1ab (Severe acute respiratory syndrome coronavirus 2) (UniProt P0DTD1); assay: Binding affinity to SARS-Cov-2 PLpro
[6] = biological target: Spike glycoprotein (Severe acute respiratory syndrome coronavirus 2) (UniProt P0DTC2); assay: Binding affinity to SARS-Cov-2 Spike protein
[7] = biological target: Dual specificity mitogen-activated protein kinase kinase; MEK1/2 (Homo sapiens, UniProt P36507+Q02750); assay: Inhibition of MEK1/2 (unknown origin); format: protein assay

CN1CCN2c3c(cccc31)[C@@H]1CN(CCCC(=O)c3ccc(F)cc3)CC[C@@H]12 [LUMATEPERONE]
half-life [1]: ≤ 30 h
half-life [2]: ≤ 30 h
IC50 [3]: 0.14 nM

CNC(=O)c1ccc(-c2cnc3ncc(Cc4ccc5ncccc5c4)n3n2)cc1F
K [4]: -9.3 kcal/mol
K [5]: -7.7 kcal/mol
K [6]: -7.7 kcal/mol

Cn1cnc2c(F)c(Nc3ccc(Br)cc3F)c(C(=O)NOCCO)cc21 [BINIMETINIB]
IC50 [7]: 12 nM
